# In article PMC6272942, “Lead Discovery of Type II BRAF V600E Inhibitors Targeting the Structurally Validated DFG-Out Conformation Based upon Selected Fragments” (Molecules, 2016):
# Target: BRAF V600E (Homo sapiens, UniProt P15056, V600E)
# Experiment: LanthaScreen biochemical kinase assay
# Sequence of BRAF V600E (P15056 whole entry V600E): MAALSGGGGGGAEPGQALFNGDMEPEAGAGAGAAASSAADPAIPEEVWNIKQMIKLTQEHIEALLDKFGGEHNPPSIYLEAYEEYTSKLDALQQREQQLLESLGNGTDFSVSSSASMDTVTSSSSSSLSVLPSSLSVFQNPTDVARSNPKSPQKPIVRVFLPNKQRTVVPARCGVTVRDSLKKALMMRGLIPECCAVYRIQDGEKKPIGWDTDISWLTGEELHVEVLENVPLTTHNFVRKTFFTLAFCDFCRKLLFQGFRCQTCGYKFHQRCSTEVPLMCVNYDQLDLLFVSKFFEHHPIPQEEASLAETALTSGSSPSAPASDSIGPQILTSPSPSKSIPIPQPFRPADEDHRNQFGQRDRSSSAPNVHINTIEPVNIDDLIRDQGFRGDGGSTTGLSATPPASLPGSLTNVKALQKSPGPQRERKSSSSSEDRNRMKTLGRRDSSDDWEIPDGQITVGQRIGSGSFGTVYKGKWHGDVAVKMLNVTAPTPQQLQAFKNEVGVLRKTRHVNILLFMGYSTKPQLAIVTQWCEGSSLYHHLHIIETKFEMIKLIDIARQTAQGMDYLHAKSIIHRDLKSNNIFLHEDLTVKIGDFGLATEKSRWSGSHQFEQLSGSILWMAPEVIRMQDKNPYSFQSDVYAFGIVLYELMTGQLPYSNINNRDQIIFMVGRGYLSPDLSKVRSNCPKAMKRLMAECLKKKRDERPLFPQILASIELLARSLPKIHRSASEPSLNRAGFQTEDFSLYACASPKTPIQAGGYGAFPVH
row,IC50 [nM],Structure (SMILES)
1,685,"Cc1nc(Nc2ccc(NC(=O)Nc3ccc(F)c(Cl)c3)cc2)cc(N2CCOCC2)n1 [SI-008, 1-(3-Chloro-4-fluorophenyl)-3-(4-(2-methyl-6-morpholinopyrimidin-4-ylamino)phenyl)urea]"
2,298,"Cc1nc(Nc2cccc(NC(=O)Nc3cc(F)ccc3C)c2)cc(N2CCOCC2)n1 [SI-046, 1-(5-Fluoro-2-methylphenyl)-3-(3-(2-methyl-6-morpholinopyrimidin-4-ylamino)phenyl)urea]"
